According to patent US11312718B2, “Formulations of (S)-3-(1-(9H-purin-6-ylamino)ethyl)-8-chloro-2-phenylisoquinolin-1(2H)-one” (Infinity Pharmaceuticals, Inc., priority 2011, dated 2022):

What was measured:
[1] = Dynamic vapor sorption (DVS) / moisture sorption analysis; type: physicochemical
Method: Compounds and polymorphs provided herein can be characterized by moisture sorption analysis. This analysis was performed using a Hiden IGAsorp Moisture Sorption instrument. Moisture sorption experiments were carried out at about 25° C. by performing an adsorption scan from about 40% to about 90% RH in steps of about 10% RH and a desorption scan from about […] to about 0% RH in steps of about −10% RH. A second adsorption scan from about 10% to about 40% RH was performed to determine the moisture uptake from a drying state to the starting humidity. Samples were allowed to equilibrate for about four hours at each point or until an asymptotic weight was reached. After the isothermal sorption scan, samples were dried for about one hour at elevated temperature (about 60° C.) to obtain the dry weight. XRPD analysis on the material following moisture sorption was performed to determine the solid form.
Dynamic vapor sorption (DVS) analysis was performed on polymorph Forms A, B, C, D, and E using the DVS instrument and parameters as described above. […] Hysteresis indicative of hemi-hydrate formation was observed.

[2] = Grinding stability (mortar and pestle); type: physicochemical; settings: by hand, 2 and 5 min, XRPD
Method: Forms A, C, D, and E were subjected to grinding experiments performed using a mortar and pestle by hand. Samples were lightly grounded for 2 minutes then analyzed by XRPD. Material was then returned to the mortar and pestle and grounded for an additional 3 minutes, for a total of 5 minutes of grinding, and re-analyzed by XRPD.

[3] = Thermal stability (60° C.); settings: held at 60° C. for 10 days
Method: (§1) Forms A, B, C, D, and E were held at 60° C. for 10 days followed by analysis by XRPD. In each case, 8 mL vials were charged with approximately 20 mg of material, with the exception of Form B for which 10 mg of material was charged. Samples equilibrated in an oven for 10 days.

[4] = 1 week
Method: as §1

B6.Sle1z.Sle3z model = settings: cited from earlier work
[5] = test system: leukemic cells from early passage p190 transduced cultures; settings: at about 70 mg/kg twice daily; cited from earlier work

For `C[C@H](Nc1ncnc2[nH]cnc12)c1cc2cccc(Cl)c2c(=O)n1-c1ccccc1` [Form E, (S)-3-(1-(9H-purin-6-ylamino)ethyl)-8-chloro-2-phenylisoquinolin-1(2H)-one], which DVS ([1]; @ 60% RH) is on record?
The DVS was 1.9% @ 60% RH.

And the DVS ([1]; @ 90% RH)?
Its DVS is 2.2% @ 90% RH.

And the hygroscopicity ([1]; DVS)?
The hygroscopicity was “slightly hygroscopic”.

And the “moisture uptake at 60% RH” value ([1]; DVS, about 25° C., 60% RH)?
The value was 1.9 wt %.

What about the “moisture uptake at 90% RH” value ([1]; DVS, about 25° C., 90% RH) of the same compound?
The value was 2.2 wt %.

And the “Grinding (mortar & pestle)” value [2]?
Its value is “amorphous”.

What about the “polymorph Form changes by XRPD” value [3] of the same compound?
The value was “No polymorph Form changes were observed”.

What about the “Thermal stability (60° C.)” value [4] of the same compound?
Its value is “stable after 1”.

For `CO[C@H]1C[C@@H]2CC[C@@H](C)[C@@](O)(O2)C(=O)C(=O)N2CCCC[C@H]2C(=O)O[C@H]([C@H](C)C[C@@H]2CC[C@@H](OCCO)[C@H](OC)C2)CC(=O)[C@H](C)/C=C(\C)[C@@H](O)[C@@H](OC)C(=O)[C@H](C)C[C@H](C)/C=C/C=C/C=C/1C` [RAD001], which lupus symptoms (B6.Sle1z.Sle3z model) is on record?
The lupus symptoms was “ameliorate lupus symptoms”.

With `Cc1ccc(NC(=O)c2ccc(CN3CCN(C)CC3)cc2)cc1Nc1nccc(-c2cccnc2)n1` [imatinib] as the compound, how does the leukemogenesis [5] read?
Its leukemogenesis is “delay but not cure leukemogenesis”.
